Test results reported in patent publication US6927233B1, “5ht2 agonists for controlling IOP and treating glaucoma” (Alcon, Inc., priority 2000, dated 2005).

System: lasered monkey model of ocular hypertension
Assay: IOP response in the lasered monkey model of ocular hypertension
Format: in vivo, cynomolgus monkeys
Settings: for IOP Response % Change, 1 hr / IOP decrease from baseline (mmHg) / IOP Response % Change, 3 hr / IOP Response % Change, 6 hr: 300 μg topical, one 30 μL aliquot to right (lasered) eye, change from baseline IOP; for effect on IOP (in words): dosed at 300 μg, lasered monkey model of ocular hypertension
Experimental: Intraocular pressure was determined with an Alcon Pneumatonometer after light corneal anesthesia with 0.1% proparacaine. Eyes were washed with saline after-each measurement. After a baseline IOP measurement, test compound was instilled in one 30 μL aliquot to the right eyes only of nine cynomolgus monkeys. Vehicle was instilled in the right eyes of six additional animals. Subsequent IOP measurements were taken at 1, 3, and 6 hours. A compound is considered efficacious in this model of ocular hypertension if there is a decrease in the baseline IOP of the lasered eye (O.D.) of at least 20% following topical administration.

SMILES | IOP Response % Change, 1 hr (1 hr after dosing) [%] | IOP decrease from baseline (mmHg) (1 hr after dosing) | IOP Response % Change, 3 hr (3 hr after dosing) [%] | IOP decrease from baseline (mmHg) (3 hr after dosing) | IOP Response % Change, 6 hr (6 hr after dosing) [%] | IOP decrease from baseline (mmHg) (6 hr after dosing) | effect on IOP (in words)
CC(N)Cn1ncc2ccc(O)cc21 (single isomer, unassigned; isomer 1) [S-(+)-isomer, 1-(2-aminopropyl)-indazol-6-ol] | −15.0 | 6.4 | −35.3 | 14.8 | −40.8 | 17.1 | significant decrease in IOP
CC(N)Cn1ncc2ccc(O)cc21 (centres unmarked) [Compound, 1-(2-aminopropyl)-indazol-6-ol] | −17.6 | 7.3 | −28.1 | 11.8 | −33.8 | 14.6 | significant decrease in IOP
